pIC50: −log10 of the molar value.
How the values were obtained:
Lethal factor [1] = molecular target: T1, Lethal factor (Bacillus anthracis, UniProt P15917)
T1 sequence (P15917 whole entry): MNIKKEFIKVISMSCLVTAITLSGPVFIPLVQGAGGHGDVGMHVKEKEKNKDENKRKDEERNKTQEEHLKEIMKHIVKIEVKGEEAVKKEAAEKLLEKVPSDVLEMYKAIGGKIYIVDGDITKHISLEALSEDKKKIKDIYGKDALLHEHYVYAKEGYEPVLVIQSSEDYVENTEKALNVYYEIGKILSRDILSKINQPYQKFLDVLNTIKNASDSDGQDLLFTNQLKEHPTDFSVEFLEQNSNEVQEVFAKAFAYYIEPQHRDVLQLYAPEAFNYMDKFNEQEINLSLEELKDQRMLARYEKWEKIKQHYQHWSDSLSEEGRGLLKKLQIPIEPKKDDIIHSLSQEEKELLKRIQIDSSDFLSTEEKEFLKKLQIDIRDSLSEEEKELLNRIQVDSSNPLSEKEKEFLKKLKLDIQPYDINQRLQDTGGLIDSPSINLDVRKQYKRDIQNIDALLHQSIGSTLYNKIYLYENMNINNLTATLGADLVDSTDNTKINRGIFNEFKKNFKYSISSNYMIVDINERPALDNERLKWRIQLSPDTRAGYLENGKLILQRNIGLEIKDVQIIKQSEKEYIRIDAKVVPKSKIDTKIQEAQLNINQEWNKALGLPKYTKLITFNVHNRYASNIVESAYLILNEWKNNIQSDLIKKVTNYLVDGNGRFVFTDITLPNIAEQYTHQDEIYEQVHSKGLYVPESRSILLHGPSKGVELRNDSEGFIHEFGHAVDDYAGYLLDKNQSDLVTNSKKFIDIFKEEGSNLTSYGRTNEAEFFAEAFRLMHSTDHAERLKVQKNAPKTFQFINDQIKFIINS

Lethal factor [2] = molecular target: T1, Lethal factor; remark: listed apart in the source
Interstitial collagenase = molecular target: T2, Interstitial collagenase (Homo sapiens, UniProt P03956); assay: Inhibition of MMP1
T2 sequence (P03956 whole entry): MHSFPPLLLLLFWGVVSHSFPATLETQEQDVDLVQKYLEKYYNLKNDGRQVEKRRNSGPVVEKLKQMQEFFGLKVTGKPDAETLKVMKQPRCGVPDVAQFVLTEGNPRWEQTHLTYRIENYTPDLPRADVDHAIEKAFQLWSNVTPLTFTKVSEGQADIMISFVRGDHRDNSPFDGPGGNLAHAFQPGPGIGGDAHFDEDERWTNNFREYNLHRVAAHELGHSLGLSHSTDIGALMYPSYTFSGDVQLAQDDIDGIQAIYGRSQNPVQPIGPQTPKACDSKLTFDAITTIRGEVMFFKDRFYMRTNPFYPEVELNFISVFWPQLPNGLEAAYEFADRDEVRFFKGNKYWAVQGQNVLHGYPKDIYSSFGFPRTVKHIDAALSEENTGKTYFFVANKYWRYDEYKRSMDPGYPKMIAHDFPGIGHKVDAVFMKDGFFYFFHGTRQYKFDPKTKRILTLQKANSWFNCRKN

[3] = molecular target: 72 kDa type IV collagenase (Homo sapiens, UniProt P08253); assay: Inhibition of MMP2
Chain of 72 kDa type IV collagenase (P08253 whole entry): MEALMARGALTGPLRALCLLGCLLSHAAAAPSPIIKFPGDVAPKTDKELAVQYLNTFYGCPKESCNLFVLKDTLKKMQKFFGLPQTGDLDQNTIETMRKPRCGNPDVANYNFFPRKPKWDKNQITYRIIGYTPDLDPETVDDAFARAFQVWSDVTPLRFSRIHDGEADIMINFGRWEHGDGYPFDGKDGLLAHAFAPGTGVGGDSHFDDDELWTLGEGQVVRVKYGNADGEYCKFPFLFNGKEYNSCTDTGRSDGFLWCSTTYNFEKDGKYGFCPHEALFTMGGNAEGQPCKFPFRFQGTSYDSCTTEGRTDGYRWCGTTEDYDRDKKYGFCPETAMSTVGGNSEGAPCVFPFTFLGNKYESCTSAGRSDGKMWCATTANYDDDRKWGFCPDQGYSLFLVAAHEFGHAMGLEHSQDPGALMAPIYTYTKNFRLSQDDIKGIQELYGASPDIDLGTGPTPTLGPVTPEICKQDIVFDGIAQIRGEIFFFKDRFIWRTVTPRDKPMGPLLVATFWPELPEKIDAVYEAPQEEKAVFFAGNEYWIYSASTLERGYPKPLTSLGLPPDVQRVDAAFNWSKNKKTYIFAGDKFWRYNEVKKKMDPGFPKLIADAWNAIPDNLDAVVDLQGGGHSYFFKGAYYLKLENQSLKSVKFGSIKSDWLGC

[4] = molecular target: Matrix metalloproteinase-9 (Homo sapiens, UniProt P14780); assay: Inhibition of MMP9
Chain of Matrix metalloproteinase-9 (P14780 whole entry): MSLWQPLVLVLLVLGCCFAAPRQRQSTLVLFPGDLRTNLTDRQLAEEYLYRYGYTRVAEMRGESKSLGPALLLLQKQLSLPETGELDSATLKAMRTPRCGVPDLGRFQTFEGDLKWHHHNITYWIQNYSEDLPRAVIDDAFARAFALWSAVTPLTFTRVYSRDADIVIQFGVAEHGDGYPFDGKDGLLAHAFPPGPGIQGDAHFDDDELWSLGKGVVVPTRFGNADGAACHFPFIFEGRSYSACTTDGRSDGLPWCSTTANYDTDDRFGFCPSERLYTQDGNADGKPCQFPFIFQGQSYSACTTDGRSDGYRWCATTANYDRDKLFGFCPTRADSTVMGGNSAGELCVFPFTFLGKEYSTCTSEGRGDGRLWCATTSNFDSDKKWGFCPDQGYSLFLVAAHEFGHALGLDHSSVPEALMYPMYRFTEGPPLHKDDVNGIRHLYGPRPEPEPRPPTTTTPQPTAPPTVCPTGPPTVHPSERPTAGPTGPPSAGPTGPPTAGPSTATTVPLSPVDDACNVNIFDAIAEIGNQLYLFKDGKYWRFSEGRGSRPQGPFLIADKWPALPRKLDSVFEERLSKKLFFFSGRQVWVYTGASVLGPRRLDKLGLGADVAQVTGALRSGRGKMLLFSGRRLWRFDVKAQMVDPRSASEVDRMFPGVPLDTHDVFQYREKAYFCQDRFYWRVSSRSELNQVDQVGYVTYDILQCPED

[5] = Half life in BALB/c mice at 10 mg/kg, iv; type: ADME, organism-based; design: dose 10 mg/kg, route intravenous; details: mouse, in vivo
[6] = Bioavailability in BALB/c mice […], po; type: ADME, organism-based; details: mouse, in vivo
[7] = Half life in Sprague-Dawley rat at 1 mg/kg, iv; type: ADME, organism-based; design: dose 1 mg/kg, route intravenous; details: in vivo
[8] = Cmax in Sprague-Dawley rat at 1 mg/kg, iv; type: ADME, organism-based; design: dose 1 mg/kg, route intravenous; details: in vivo
[9] = Tmax in Sprague-Dawley rat at 1 mg/kg, iv; type: ADME, organism-based; design: dose 1 mg/kg, route intravenous; details: in vivo
[10] = Tmax in Guinea pig at 2 mg/kg, iv; type: ADME, organism-based, Cavia porcellus; design: dose 2 mg/kg, route intravenous; details: in vivo
[11] = Cmax in Dutch Belted rabbit at 2 mg/kg, iv; type: ADME, organism-based, Oryctolagus cuniculus; design: dose 2 mg/kg, route intravenous; details: in vivo
[12] = Clearance in New Zealand White rabbit at 5 mg/kg, iv; type: ADME, organism-based, Oryctolagus cuniculus; design: dose 5 mg/kg, route intravenous; details: in vivo
[13] = Clearance in Beagle dog at 1 mg/kg, iv; type: ADME, organism-based, Canis lupus familiaris; design: dose 1 mg/kg, route intravenous; details: in vivo
[14] = Bioavailability in Beagle dog […], po; type: ADME, organism-based, Canis lupus familiaris; details: in vivo
[15] = Clearance in rhesus monkey at 1 mg/kg, iv; type: ADME, organism-based, Macaca mulatta; design: dose 1 mg/kg, route intravenous; details: in vivo

Work on `Cc1cc(S(=O)(=O)N[C@@H](C(=O)NO)C2CCOCC2)ccc1F` yielded a pIC50 (Lethal factor [1]) of 7.27, a pIC50 (Lethal factor [2]) of 6.68 and a pIC50 (Interstitial collagenase) of 5.66. For the same compound, the pIC50 [3] was 5.70, the pIC50 [4] was 5.70 and the half-life [5] was 24 min. It also gave a bioavailability [6] of 20%, a half-life [7] of 84 min and a Cmax [8] of 240 nM. For the same compound, the Tmax [9] was 18 min, the Tmax [10] was 48 min and the Cmax [11] was 12 nM. It also gave a clearance [12] of 35 mL/min/kg, a clearance [13] of 15 mL/min/kg and a bioavailability [14] of 57%. For the same compound, the clearance [15] was 23 mL/min/kg.

From ChEMBL document CHEMBL1138106, “The discovery of a potent and selective lethal factor inhibitor for adjunct therapy of anthrax infection” (Bioorg Med Chem Lett, 2006)
